Experiment [1] addresses T1, IDO (Homo sapiens (Human), UniProt P14902). The experiment is described as follows: LLE_IDO_ABS_DR (IDO assay, method not described).
The target in experiment [2] is T1, IDO. As to the kind of experiment: Kynurenine assay in IFN-γ-stimulated Hela cells. The format is cell-based. Particulars: 20 h, read-out: Hela Kyurenine (IC50). An outline of the steps:
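Kynurenine in supernatant is read at 490 nm after Ehrlich reagent (10 min RT), following TCA stop and 30 min at 50° C hydrolysis. Before that, Hela cells in phenol red-free RPMI/10% FBS were co-treated 20 h at 37° C with 100 ng/mL IFN-γ and compound (30 μM top, 3-fold series to 1.5 nM).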

T1 sequence (P14902 whole entry): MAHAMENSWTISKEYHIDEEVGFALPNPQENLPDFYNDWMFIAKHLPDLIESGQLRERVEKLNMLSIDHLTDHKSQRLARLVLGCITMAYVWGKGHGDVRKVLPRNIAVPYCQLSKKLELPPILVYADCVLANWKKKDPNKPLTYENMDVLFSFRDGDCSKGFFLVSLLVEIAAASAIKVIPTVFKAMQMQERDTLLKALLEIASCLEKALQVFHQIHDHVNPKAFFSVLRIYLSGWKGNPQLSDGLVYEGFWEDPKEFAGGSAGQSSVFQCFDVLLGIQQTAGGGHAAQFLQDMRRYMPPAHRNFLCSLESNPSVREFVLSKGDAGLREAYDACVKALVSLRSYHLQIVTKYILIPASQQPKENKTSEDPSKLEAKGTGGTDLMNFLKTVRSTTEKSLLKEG

Turning to `Cc1ccc(NC(=O)Nc2cc(-c3ccccc3-c3nn[nH]n3)ccc2OC(C(C)C)C(C)C)cc1` [Example 9, 1-(4-((2,4-Dimethylpentan-3-yl)oxy)-2′-(1H-tetrazol-5-yl)-[1,1′-biphenyl]-3-yl)-3-(p-tolyl)urea], 30 nM corresponded to half-maximal inhibition at IDO [1] (IC50).
The same measure, in the same setting: as for `Cc1ccc(NC(=O)Nc2cc(-c3ccccc3C(=O)O)ccc2OC(C(C)C)C(C)C)cc1` [Example 10, 4′-((2,4-Dimethylpentan-3-yl)oxy)-3′-(3-(p-tolyl)ureido)-[1,1′-biphenyl]-2-carboxylic acid], the figure is 720 nM.
Same read-out and setting: the figure for `CC(C)C(Oc1ccc(-c2ccccc2-c2nnn[nH]2)cc1NC(=O)Nc1ccccc1F)C(C)C` [Example 11, 1-(4-((2,4-Dimethylpentan-3-yl)oxy)-2′-(1H-tetrazol-5-yl)-[1,1′-biphenyl]-3-yl)-3-(2-fluorophenyl)urea] is 160 nM; for `COc1ccc(-c2ccc(OC(C(C)C)C(C)C)c(NC(=O)Nc3ccccc3F)c2)cc1C(=O)O` [Example 12, 4′-((2,4-Dimethylpentan-3-yl)oxy)-3′-(3-(2-fluorophenyl)ureido)-4-methoxy-[1,1′-biphenyl]-3-carboxylic acid] it is 820 nM.
The compound `CCCC(CCC)Oc1ccc(-c2ccccc2-c2nn[nH]n2)cc1NC(=O)Nc1ccc(C)cc1` [Example 13, 1-(4-(Heptan-4-yloxy)-2′-(1H-tetrazol-5-yl)-[1,1′-biphenyl]-3-yl)-3-(p-tolyl)urea] gave an IC50 at IDO [1] of 30 nM.
On IDO [1], `CCCC(CCC)Oc1ccc(-c2ccccc2C(=O)O)cc1NC(=O)Nc1ccc(C)cc1` [Example 14, 4′-(Heptan-4-yloxy)-3′-(3-(p-tolyl)ureido)-[1,1′-biphenyl]-2-carboxylic acid] gave an IC50 of 600 nM.
Still for that read-out and setting: as for `CCCC(CCC)Oc1ccc(-c2cc(F)ccc2C(=O)O)cc1NC(=O)Nc1ccc(C)cc1` [Example 15, 5-Fluoro-4′-(heptan-4-yloxy)-3′-(3-(p-tolyl)ureido)-[1,1′-biphenyl]-2-carboxylic acid], the figure is 380 nM; as for `CCCOc1c(CCC)cc(-c2ccccc2C(=O)O)cc1NC(=O)Nc1ccc(C)cc1` [Example 17, 4′-Propoxy-3′-propyl-5′-(3-(p-tolyl)ureido)-[1,1′-biphenyl]-2-carboxylic acid], 200 nM; as for `CCCOc1c(CCC)cc(-c2cc(F)ccc2C(=O)O)cc1NC(=O)Nc1ccc(C)cc1` [Example 18, 5-Fluoro-4′-propoxy-3′-propyl-5′-(3-(p-tolyl)ureido)-[1,1′-biphenyl]-2-carboxylic acid], 310 nM.
Compound `C/C=C/Cc1cc(-c2ccccc2C(=O)O)cc(NC(=O)Nc2ccc(C)cc2)c1OCCC` [Example 20, (E)-3′-(But-2-en-1-yl)-4′-propoxy-5′-(3-(p-tolyl)ureido)-[1,1′-biphenyl]-2-carboxylic acid] registered an IC50 on IDO [1] of 170 nM.
Still for that read-out and setting: the figure for `C/C=C/Cc1cc(-c2cc(F)ccc2C(=O)O)cc(NC(=O)Nc2ccc(C)cc2)c1OCCC` [Example 21, (E)-3′-(But-2-en-1-yl)-5-fluoro-4′-propoxy-5′-(3-(p-tolyl)ureido)-[1,1′-biphenyl]-2-carboxylic acid] is 150 nM.
On the same count and under the same terms, the figure for `CCCCc1cc(-c2ccccc2C(=O)O)cc(NC(=O)Nc2ccc(C)cc2)c1OCCC` [Example 23, 3′-Butyl-4′-propoxy-5′-(3-(p-tolyl)ureido)-[1,1′-biphenyl]-2-carboxylic acid] is 130 nM; for `CCCCc1cc(-c2cc(F)ccc2C(=O)O)cc(NC(=O)Nc2ccc(C)cc2)c1OCCC` [Example 24] it is 80 nM; for `C/C=C/Cc1cc(-c2ccccc2-c2nnn[nH]2)cc(NC(=O)Nc2ccc(C)cc2)c1OCc1ccccc1` [Example 25, (E)-1-(4-(Benzyloxy)-5-(but-2-en-1-yl)-2′-(1H-tetrazol-5-yl)-[1,1′-biphenyl]-3-yl)-3-(p-tolyl)urea] it is 160 nM.
On the same count and under the same terms, as for `C/C=C/Cc1cc(-c2ccccc2C(=O)O)cc(NC(=O)Nc2ccc(C)cc2)c1OCc1ccccc1` [Example 26, (E)-4′-(Benzyloxy)-3′-(but-2-en-1-yl)-5′-(3-(p-tolyl)ureido)-[1,1′-biphenyl]-2-carboxylic acid], the figure is 650 nM; as for `C/C=C/Cc1cc(-c2cc(F)ccc2C(=O)O)cc(NC(=O)Nc2ccc(C)cc2)c1OCc1ccccc1` [Example 27, (E)-4′-(Benzyloxy)-3′-(but-2-en-1-yl)-5-fluoro-5′-(3-(p-tolyl)ureido)-[1,1′-biphenyl]-2-carboxylic acid], 850 nM.
In the case of `Cc1ccc(NC(=O)Nc2cc(-c3ccccc3-c3nnn[nH]3)ccc2OCc2ccccc2)cc1` [Example 28, 1-(4-(Benzyloxy)-2′-(1H-tetrazol-5-yl)-[1,1′-biphenyl]-3-yl)-3-(p-tolyl)urea], at IDO [1], the IC50 was 250 nM.
Still for that read-out and setting: as for `CCCOc1c(/C=C/C=C(F)F)cc(-c2cc(F)ccc2C(=O)O)cc1NC(=O)Nc1ccc(C)cc1` [Example 33, (E)-3′-(4,4-Difluorobuta-1,3-dien-1-yl)-5-fluoro-4′-propoxy-5′-(3-(p-tolyl)ureido)-[1,1′-biphenyl]-2-carboxylic acid], the figure is 110 nM; as for `CCCOc1c(C/C=C/c2ccccc2)cc(-c2ccccc2-c2nnn[nH]2)cc1NC(=O)Nc1ccc(C)cc1` [Example 34, (E)-1-(5-Cinnamyl-4-propoxy-2′-(1H-tetrazol-5-yl)biphenyl-3-yl)-3-p-tolylurea], 170 nM; as for `CCCOc1c(C/C=C/c2ccccc2)cc(-c2ccccc2C(=O)O)cc1NC(=O)Nc1ccc(C)cc1` [Example 35, 3′-Cinnamyl-4′-propoxy-5′-(3-p-tolylureido)biphenyl-2-carboxylic acid], 100 nM.
Still for that read-out and setting: the figure for `CCCOc1c(CCCc2ccccc2)cc(-c2ccccc2-c2nnn[nH]2)cc1NC(=O)Nc1ccc(C)cc1` [Example 37, 1-(5-(3-Phenylpropyl)-4-propoxy-2′-(1H-tetrazol-5-yl)biphenyl-3-yl)-3-p-tolylurea] is 130 nM.
With `CCCOc1c(C/C=C/c2ccccc2)cc(-c2ccccc2-c2nnn[nH]2)cc1NC(=O)Nc1ccccc1F` [Example 38, (E)-1-(5-Cinnamyl-4-propoxy-2′-(1H-tetrazol-5-yl)biphenyl-3-yl)-3-(2-fluorophenyl)urea], on IDO [1], the IC50 came out at 210 nM.
On the same count and under the same terms, the figure for `CCCOc1c(CCCc2ccccc2)cc(-c2ccccc2-c2nnn[nH]2)cc1NC(=O)Nc1ccccc1F` [Example 39, 1-(2-Fluorophenyl)-3-(5-(3-phenylpropyl)-4-propoxy-2′-(1H-tetrazol-5-yl)biphenyl-3-yl)urea] is 50 nM.
Same read-out and setting: as for `CCCCc1cc(-c2cc(F)ccc2C(=O)O)cc(NC(=O)Nc2ccc(C)cc2)c1OCc1ccccc1` [Example 40, 4′-(Benzyloxy)-3′-butyl-5-fluoro-5′-(3-p-tolylureido)biphenyl-2-carboxylic acid], the figure is 130 nM; as for `CC(C)(C)c1ccccc1Oc1ccc(-c2ccc(F)cc2-c2nnn[nH]2)cc1NC(=O)Nc1ccccc1Cl` [Example 195, 1-(4-(2-tert-butylphenoxy)-4′-fluoro-2′-(1H-tetrazol-5-yl)biphenyl-3-yl)-3-(2-chlorophenyl)urea], 1860 nM.
With `CC(C)(C)c1ccccc1Oc1ccc(-c2cc(F)cc(C(=O)O)c2)cc1NC(=O)Nc1ccccc1Cl` [Example 253, 4′-(2-tert-butylphenoxy)-3′-(3-(2-chlorophenyl)ureido)-5-fluorobiphenyl-3-carboxylic acid], the IC50 at IDO [2] was determined as 1100 nM.
The same measure, in the same setting: as for `COc1ccc(-c2ccc(Oc3ccccc3C(C)(C)C)c(NC(=O)Nc3ccc(C)cc3)c2)cc1C(=O)O` [Example 255, 4′-(2-tert-butylphenoxy)-4-methoxy-3′-(3-p-tolylureido) biphenyl-3-carboxylic acid], the figure is 370 nM.
On to `Cc1ccc(NC(=O)Nc2cc(-c3ccc(C(=O)O)cc3)ccc2Oc2ccccc2C(C)(C)C)cc1` [Example 256, 4′-(2-tert-butylphenoxy)-3′-(3-p-tolylureido) biphenyl-4-carboxylic acid], for which the half-inhibitory concentration (IC50) on IDO [2] is 310 nM.
On the same count and under the same terms, the figure for `COc1cc(-c2ccc(Oc3ccccc3C(C)(C)C)c(NC(=O)Nc3ccc(C)cc3)c2)ccc1C(=O)O` [Example 258, 4′-(2-tert-butylphenoxy)-3-methoxy-3′-(3-p-tolylureido) biphenyl-4-carboxylic acid] is 2250 nM.
Still for that read-out and setting: as for `O=C(Nc1ccccc1Cl)Nc1cc(-c2cccc(C(=O)O)c2)ccc1Oc1ccccc1C(F)(F)F` [Example 259, 3′-(3-(2-chlorophenyl)ureido)-4'-(2-(trifluoromethyl)phenoxy) biphenyl-3-carboxylic acid], the figure is 2210 nM; as for `O=C(Nc1ccc(OC(F)(F)F)cc1)Nc1cc(-c2cc(Cl)cc(C(=O)O)c2)ccc1Oc1ccccc1Cl` [Example 260, 5-chloro-4′-(2-chlorophenoxy)-3′-(3-(4-(trifluoromethoxy)phenyl)ureido)biphenyl-3-carboxylic acid], 5590 nM.
Still for that read-out and setting: as for `CC(C)(C)c1ccccc1Oc1ccc(-c2cc(C(=O)O)ccc2F)cc1NC(=O)Nc1ccc(OC(F)(F)F)cc1` [Example 261, 4′-(2-tert-butylphenoxy)-6-fluoro-3′-(3-(4-(trifluoromethoxy)phenyl)ureido) biphenyl-3-carboxylic acid], the figure is 420 nM; as for `CC(C)(C)c1ccccc1Oc1ccc(-c2cc(Cl)cc(C(=O)O)c2)cc1NC(=O)Nc1ccc(OC(F)(F)F)cc1` [Example 262, 4′-(2-tert-butylphenoxy)-5-chloro-3′-(3-(4-(trifluoromethoxy)phenyl)ureido) biphenyl-3-carboxylic acid], 4560 nM; as for `CC(C)(C)c1ccccc1Oc1ccc(-c2ccc(C(=O)O)cc2)cc1NC(=O)Nc1ccc(OC(F)(F)F)cc1` [Example 265, 4′-(2-tert-butylphenoxy)-3′-(3-(4-(trifluoromethoxy)phenyl)ureido)biphenyl-4-carboxylic acid], 3460 nM.
For the compound `COc1ccc(-c2cnc(Oc3ccccc3C(C)(C)C)c(NC(=O)Nc3ccc(C)cc3)c2)cc1C(=O)O` [Example 335], at IDO [2], the IC50 stood at 340 nM.
On the same count and under the same terms, the figure for `Cc1ccc(NC(=O)Nc2cc(-c3ccc(C(=O)O)cc3)cnc2Oc2ccccc2)cc1` [Example 338] is 87900 nM.

The term IC50 denotes the concentration that gives 50% inhibition.

Values taken from patent publication US9765018B2, “IDO inhibitors” (BRISTOL-MYERS SQUIBB COMPANY, priority 2013, dated 2017).
